Assay results taken from patent publication US20120148685A1, “METHODS AND COMPOSITIONS FOR TREATING INSULIN RESISTANCE, DIABETES MELLITUS TYPE 2, METABOLIC SYNDROME AND RELATED DISORDERS” (Engergy4Life AG, priority 2009, published 2012).
Marks after values point to notes of the source that are not given here.

Assays:
[1] = tested on: fatty acid synthase (FAS); assay: Relative mRNA concentration in liver, lipogenesis: FAS; format: in vivo, Zucker rats; conditions: liver of obese Zucker rats, diet 4 wk, obese control = 1.00, means ± SD (n = 12)
Experimental: (§1) All rats were kept individually in Macrolon cages in a room maintained at 22±1° C. and 50-60% relative humidity with lighting from 06.00 to 18.00 hours. All experimental procedures described followed established guidelines for the care and handling of laboratory animals and were approved by the local Animal Care and Use Committee.
(§2) Five different diets were used differing in their supplementation. […] Feed was administered ad libitum, and feed intake was recorded weekly. Experimental diets were fed for 4 weeks. Water was available ad libitum from nipple drinkers during the whole experiment.

[2] = Organ weights of the rats; format: in vivo; conditions: obese (fa/fa) Zucker rats, supplemented diet fed 4 wk, means ± SD (n = 12)
Experimental: as §1, §2

[3] = Feed intake, body weight development and feed conversion ratio of Zucker rats fed supplemented diets; format: in vivo; conditions: obese (fa/fa) Zucker rats, supplemented diet fed 4 wk, means ± SD (n = 12)
Description: Zucker rats are an established model of human early-onset, hyperplastic-hypertrophic obesity and insulin resistance as well as human non-insulin dependent diabetes mellitus.
(§3) A total of 60 male, 8-10 week old, obese (fa/fa) Zucker rats (Crl:ZUC-Leprfa; Charles River, France) with an initial body weight of 358±24 (mean±SD) g were randomly assigned to five groups of twelve rats each. In addition, 12 male, 8-10 week old, heterozygous lean (fa/+) Zucker rats with an initial body weight of 271±10 g were used as a lean control group. All rats were kept individually in Macrolon cages in a room maintained at 22±1° C. and 50-60% relative humidity with lighting from 06.00 to 18.00 hours. All experimental procedures described followed established guidelines for the care and handling of laboratory animals and were approved by the local Animal Care and Use Committee.
(§4) The rats were fed semi-purified diets which were composed according to the recommendations of the American Institute of Nutrition (AIN)-93G. Five different diets were used differing in their supplementation. […] Diets were prepared by mixing the dry components and subsequent pelleting with a standard pelleting device (Kahl Laborpressanlage Typ 14-175; Reinbek, Germany). Feed was administered ad libitum, and feed intake was recorded weekly. Experimental diets were fed for 4 weeks. Water was available ad libitum from nipple drinkers during the whole experiment.

[4] = Plasma and lipoprotein lipid concentrations (triacylglycerol, cholesterol; enzymatic kits); format: in vivo, Zucker rats; conditions: obese (fa/fa) Zucker rats, supplemented diet 4 wk, fasted, means ± SD (n = 12)
Experimental: as §3, §4
(§5) The rats were decapitated under CO2 anesthesia in the fasted state. Whole blood was collected into EDTA polyethylene tubes (Sarstedt, Nürnbrecht, Germany). Plasma was separated from whole blood by centrifugation (1,100×g; 10 min) at 4° C. Lipoproteins [VLDL, LDL and high-density lipoproteins (HDL)] were separated by step-wise ultracentrifugation (900,000×g, 1.5 h, 4° C.; Mikro-Ultrazentrifuge, Sorvall Products, Bad Homburg, Germany). All samples were stored at −20° C. pending analysis.
Triacylglycerol and cholesterol concentrations in plasma and lipoproteins were determined using enzymatic reagent kits from Biocon (Vöhl-Marienhagen, Germany).

[5] = tested on: leptin; assay: Leptin in plasma (rat ELISA); format: in vivo, Zucker rats; conditions: obese (fa/fa) Zucker rats, supplemented diet 4 wk, fasted, means ± SD (n = 12)
Experimental: as §3, §4, §5
(§6) Concentrations of leptin in plasma was determined by rat ELISA kits from BioVendor (Heidelberg, Germany). Concentration of high molecular weight adiponectin was determined by a rat ELISA kit from Shibayagi (Ishihara, Shibukawa, Gunma, Japan).

[6] = Fasting glucose concentration in plasma; format: in vivo, Zucker rats; conditions: obese (fa/fa) Zucker rats, supplemented diet 4 wk, fasted, means ± SD (n = 12)
Experimental: as §3, §4, §5
Glucose concentration in plasma was determined by an enzymatic reagent kit from Analyticon Biotechnologies (Lichtenfels, Germany).

[7] = tested on: acyl-CoA oxidase (ACO); assay: Relative mRNA concentration in liver, fatty acid oxidation: ACO; format: in vivo; conditions: liver of obese Zucker rats, diet 4 wk, obese control = 1.00, means ± SD (n = 12)
Experimental: as §1, §2

[8] = tested on: liver-type carnitine-palmitoyltransferase (L-CPT) I; assay: Relative mRNA concentration in liver, fatty acid oxidation: L-CPT I; format: in vivo; conditions: liver of obese Zucker rats, diet 4 wk, obese control = 1.00, means ± SD (n = 12)
Experimental: as §1, §2

[9] = tested on: high molecular weight adiponectin; assay: High molecular weight adiponectin in plasma (rat ELISA); format: in vivo; conditions: obese (fa/fa) Zucker rats, supplemented diet 4 wk, fasted, means ± SD (n = 12)
Experimental: as §3, §4, §5, §6

[10] = tested on: scavenger receptor CD36; assay: Relative mRNA concentration in liver, fatty acid uptake: CD36; format: in vivo; conditions: liver of obese Zucker rats, diet 4 wk, obese control = 1.00, means ± SD (n = 12)
Experimental: as §1, §2

[11] = tested on: lipoprotein lipase (LPL); assay: Relative mRNA concentration in liver, fatty acid uptake: LPL; format: in vivo; conditions: liver of obese Zucker rats, diet 4 wk, obese control = 1.00, means ± SD (n = 12)
Experimental: as §1, §2

[12] = tested on: fatty acid transport protein (FATP); assay: Relative mRNA concentration in liver, fatty acid uptake: FATP; format: in vivo; conditions: liver of obese Zucker rats, diet 4 wk, obese control = 1.00, means ± SD (n = 12)
Experimental: as §1, §2

[13] = tested on: sterol regulatory element-binding protein (SREBP)-1c; assay: Relative mRNA concentration in liver, lipogenesis: SREBP-1c; format: in vivo, Zucker rats; conditions: liver of obese Zucker rats, diet 4 wk, obese control = 1.00, means ± SD (n = 12)
Experimental: as §1, §2

[14] = tested on: stearoyl-CoA desaturase (SCD); assay: Relative mRNA concentration in liver, lipogenesis: SCD; format: in vivo; conditions: liver of obese Zucker rats, diet 4 wk, obese control = 1.00, means ± SD (n = 12)
Experimental: as §1, §2

[15] = Non-esterified fatty acids (NEFA) in plasma; format: in vivo, Zucker rats; conditions: obese (fa/fa) Zucker rats, supplemented diet 4 wk, fasted, means ± SD (n = 12)
Experimental: as §3, §4, §5
NEFA concentrations in plasma were determined using the NEFA kit from Wako Chemicals (Neuss, Germany).

[16] = tested on: fatty acid binding protein (FABP); assay: Relative mRNA concentration in liver, fatty acid uptake: FABP; format: in vivo, Zucker rats; conditions: liver of obese Zucker rats, diet 4 wk, obese control = 1.00, means ± SD (n = 12)
Experimental: as §1, §2

CC/C=C\C/C=C\C/C=C\C/C=C\C/C=C\C/C=C\CCC(=O)O [DHA, docosahexaenoic acid]
Relative mRNA concentration, FAS [1]: 0.71 ± 0.55 ^ab
Absolute organ weights: Heart [2]: 1.36 ± 0.13 g
Absolute organ weights: Kidney [2]: 2.59 ± 0.38 g
Absolute organ weights: Liver [2]: 24.7 ± 3.7 ^a g
Relative organ weights: Heart [2]: 2.70 ± 0.21 ^b mg/g body weight
Relative organ weights: Kidney [2]: 5.16 ± 0.91 mg/g body weight
Relative organ weights: Liver [2]: 48.6 ± 4.9 ^a mg/g body weight
Daily body weight gain [3]: 5.14 ± 0.60 ^a g
Feed conversion ratio [3]: 5.01 ± 0.28 ^c g/g
Feed intake [3]: 25.7 ± 2.9 ^ab g/d
Final body weight [3]: 505 ± 34 ^a g
Total body weight gain [3]: 146 ± 17 ^a g
Cholesterol, HDL [4]: 4.51 ± 0.45 ^a mmol/L
Cholesterol, Plasma [4]: 8.30 ± 1.00 ^a mmol/L
Cholesterol, VLDL + LDL [4]: 3.62 ± 0.53 ^a mmol/L
Triacylglycerols, Plasma [4]: 4.73 ± 0.98 ^bc mmol/L
Triacylglycerols, VLDL + LDL [4]: 2.81 ± 0.52 ^b mmol/L
Leptin in plasma [5]: 7.27 ± 1.09 ^a ng/mL
Glucose in plasma [6]: 7.99 ± 0.77 ^ab mmol/L
Relative mRNA concentration, ACO [7]: 1.27 ± 0.35
Relative mRNA concentration, L-CPT I [8]: 1.31 ± 0.69
Adiponectin in plasma [9]: 120 ± 22 ng/mL
Relative mRNA concentration, CD36 [10]: 0.91 ± 0.38 ^a
Relative mRNA concentration, LPL [11]: 1.26 ± 0.36
Relative mRNA concentration, FATP [12]: 1.07 ± 0.90
Relative mRNA concentration, SREBP-1c [13]: 0.81 ± 0.32 ^ab
Relative mRNA concentration, SCD [14]: 1.01 ± 0.45 ^a
NEFA in plasma [15]: 2.42 ± 0.53 ^b mmol/L
Relative mRNA concentration, FABP [16]: 0.99 ± 0.19 ^a
